Consider four compounds from patent US20050232911A1, “Prevention and treatment of metabolic abnormalities associated with excess intramyocellular lipid” (priority 2004, published 2005).

Series [1] deals with whole animal models. Conditions: cited from earlier work.
For series [2], the system named is obese Zucker rats. The series can be described thus: Renal histology / kidney injury. The format is in vivo, rat. The settings on record: chronic administration, secondary benefit. As for the experimental part:
Forty-five male obese Zucker rats are obtained at 5 weeks of age (Charles is River) and randomized into three groups of 15 each. Namely, the forty-five male obese Zucker rats are randomized into Control Group A, Control Group B, and L-Carn Group, which each consists of 15 rats. Control Group A and Control Group B receive normal rat chow throughout the study. The 15 Zucker rats in L-Carn Group receive 100 mg/kg bodyweight (BWt) of levocarnitine, daily, in their drinking water or mixed with their food. At 6 weeks of age, all groups are placed in metabolic cages for 24-hours to determine baseline protein and creatinine excretion rates, whereby proteinuria can be determined. Systolic blood pressure measurements are obtained by tailcuff plethysmography and a sample of blood is obtained from the tail for determination of fasting plasma creatinine, insulin, blood glucose, triglycerides, and cholesterol. These measurements are subsequently repeated at 12, 18, and 24 weeks of age. […]
As one example, the PAS stained kidney sections are e.g. observed, examined, studied, and/or analyzed with light microscopy or other suitable means, while considering suitable observational criteria which includes, but is not limited to, a suitable glomerular sclerosis index, a suitable tubulointerstitial index, a suitable mesangial matrix index, and/or others. […]

In series [3] the test system is obese Zucker rats. Description: Insulin sensitivity by euglycemic-hyperinsulinemic clamp technique. Conditions: chronic administration. The format is in vivo, rat.
Method: Forty-five male obese Zucker rats are obtained at 5 weeks of age (Charles is River) and randomized into three groups of 15 each. Namely, the forty-five male obese Zucker rats are randomized into Control Group A, Control Group B, and L-Carn Group, which each consists of 15 rats. Control Group A and Control Group B receive normal rat chow throughout the study. The 15 Zucker rats in L-Carn Group receive 100 mg/kg bodyweight (BWt) of levocarnitine, daily, in their drinking water or mixed with their food. At 6 weeks of age, all groups are placed in metabolic cages for 24-hours to determine baseline protein and creatinine excretion rates, whereby proteinuria can be determined. […] At 6 weeks of age, the Zucker rats of Control Group A are anesthetized with sodium pentobarbital (50-60 mg/kg BWt intraperitoneally) and insulin sensitivity is determined using the euglycemic-hyperinsulinemic clamp technique, explained elsewhere herein. […] Blood glucose is determined every 15 minutes over a 120 minute baseline period. […] Blood glucose is analyzed every 5 minutes from a catheter in the femoral artery using a glucometer (Freestyle®, test volume required=0.3 μL) and the rate of D-glucose infused is adjusted to maintain plasma glucose at ˜5 mol/L. Whole body insulin sensitivity is calculated at the mean glucose infusion rate during the last 60 minutes of the euglycemic-hyperinsulinemic clamp study. […]
For series [4], the system named is Type II Diabetics. The settings on record: acute administration; cited from earlier work.
Series [5] concerns canine cardiac tissue. Conditions: cited from earlier work.
For series [6] the following is noted: carnitine treatment; cited from earlier work.
Series [7] has as its system obese Zucker rats. The series can be described thus: Intramyocellular lipid content (oil red O staining of adductor magnus muscle) after chronic levocarnitine. The format is in vivo, rat. Conditions: obese Zucker rats with metabolic syndrome; chronic administration, 100 mg/kg bodyweight daily in drinking water or food.
Method: Forty-five male obese Zucker rats are obtained at 5 weeks of age (Charles is River) and randomized into three groups of 15 each. Namely, the forty-five male obese Zucker rats are randomized into Control Group A, Control Group B, and L-Carn Group, which each consists of 15 rats. Control Group A and Control Group B receive normal rat chow throughout the study. The 15 Zucker rats in L-Carn Group receive 100 mg/kg bodyweight (BWt) of levocarnitine, daily, in their drinking water or mixed with their food. […] After determining insulin sensitivity, the adductor magnus muscle of the left hind leg is isolated and the anterior and posterior ends tied with 3-O silk and cut outside the ties. The muscle is placed across a wooden stick, slightly wider than the muscle section is long, and tied in place to preserve its normal amount of stretch, then immediately immersed in isopentane cooled in liquid nitrogen. […] The lipid content of the sections is determined by using histochemical staining. One such suitable histochemical staining process includes using lipid-soluble dye to dye respective sections of tissue which are then observed and/or other wise analyzed. […] Ones of the three muscle fiber types are examined and lipid concentrations are determined respectively, pursuant to techniques and methods well known to those skilled in the art. […]
Series [8] deals with obese Zucker rat. The settings on record: treated rats; cited from earlier work.
The conditions of series [9]: cited from earlier work.

Take `CCOC(=O)[C@@]1(CCCCCCOc2ccc(Cl)cc2)CO1` [Etomoxir]: in [1], the intramyocellular lipid entry is recorded as “rise in intramyocellular lipid” and the “whole body insulin resistance” value is on record as “increasing degrees of whole body insulin resistance”.

In the case of `C[N+](C)(C)CC(O)CC(=O)[O-]` (centres unmarked) [levocarnitine, 3-hydroxy-4-N trimethylammonium butyrate], the kidney injury result in [2] is recorded as “reduction of kidney injury”. In [3] (obese Zucker rats with metabolic syndrome, 100 mg/kg bodyweight daily), the insulin sensitivity entry is on record as “improves insulin sensitivity”. The systemic insulin concentrations result in [3] (obese Zucker rats) is “lower systemic insulin concentrations”. Also, in series [4], the “glucose storage and oxidation” value was “both glucose storage and oxidation”; the “whole body glucose uptake” value is “significantly increased whole body glucose uptake”. Also, in series [5], the “elution of long chain acyl CoA esters” value is recorded as “ability of levocarnitine to elute long chain acyl CoA esters has been demonstrated”. In addition, in series [6], the “urinary excretion of long chain carnitine esters” value was “increased urinary excretion of long chain carnitine esters”. For the same compound, in series [7], the intramyocellular lipid concentration result is listed as “decreases the intramyocellular lipid concentration”.

As for `CN(CCOc1ccc(CC2SC(=O)NC2=O)cc1)c1ccccn1` (centres unmarked) [roziglitazone], in series [8], the “concentration of IMCL” value is reported as “reduce the concentration of IMCL” and the insulin sensitivity result is given as “marked improvement in insulin sensitivity”. Also, the side effects result in series [9] (in vivo) is “weight gain”.

As to `Cc1c(C)c2c(c(C)c1O)CCC(C)(COc1ccc(CC3SC(=O)NC3=O)cc1)O2` (centres unmarked) [troglitazone], the hepatotoxicity entry in series [9] (removed from the market) is on record as “excessive hepatotoxicity”.
